Active and inactive are the calls of the source. The calls are words filed in the database; no cut-off is given here.
Tests used:
[1] = tested on: Bacteroides fragilis; test: Inhibition of Bacteroides fragilis GUS pre-incubated for 5 to 30 mins before 4-methylumbelliferone beta-D-glucuronide substrate addition at pH 3.6 to 6.9
[2] = biological target: T1, Beta-glucuronidase (Bos taurus, UniProt A3KMY8); test: Inhibition of bovine GUS pre-incubated for 5 to 30 mins before 4-methylumbelliferone beta-D-glucuronide substrate addition at pH 6.7
T1 sequence (A3KMY8 whole entry): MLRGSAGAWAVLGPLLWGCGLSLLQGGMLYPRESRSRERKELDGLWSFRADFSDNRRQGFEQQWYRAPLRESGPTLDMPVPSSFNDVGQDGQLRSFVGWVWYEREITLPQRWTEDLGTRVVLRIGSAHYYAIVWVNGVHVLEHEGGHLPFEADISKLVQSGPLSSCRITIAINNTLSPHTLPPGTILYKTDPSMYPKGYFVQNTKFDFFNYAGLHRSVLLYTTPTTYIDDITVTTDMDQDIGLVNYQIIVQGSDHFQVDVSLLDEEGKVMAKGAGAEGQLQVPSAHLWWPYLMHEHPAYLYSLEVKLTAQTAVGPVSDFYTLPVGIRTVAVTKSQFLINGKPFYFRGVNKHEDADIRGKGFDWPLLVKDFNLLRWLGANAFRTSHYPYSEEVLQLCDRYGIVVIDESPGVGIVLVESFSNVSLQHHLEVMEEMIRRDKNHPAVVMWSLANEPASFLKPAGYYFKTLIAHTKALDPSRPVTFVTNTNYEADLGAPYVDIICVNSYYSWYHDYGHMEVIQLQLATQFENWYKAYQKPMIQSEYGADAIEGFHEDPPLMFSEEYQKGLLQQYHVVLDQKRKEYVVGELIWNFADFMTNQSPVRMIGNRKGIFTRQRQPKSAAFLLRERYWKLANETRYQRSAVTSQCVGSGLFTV

[3] = Inhibition of Ruminococcus gnavus GUS pre-incubated for 5 to 30 mins before 4-methylumbelliferone beta-D-glucuronide substrate addition at pH 6.7; parameters: species or system Mediterraneibacter gnavus
[4] = Inhibition of Clostridium perfringens GUS pre-incubated for 5 to 30 mins before 4-methylumbelliferone beta-D-glucuronide substrate addition at pH 5.5
[5] = biological target: T1, Beta-glucuronidase; test: Inhibition of bovine GUS pre-incubated for 5 to 30 mins before 4-methylumbelliferone beta-D-glucuronide substrate addition at pH 4.5
[6] = tested on: Mediterraneibacter gnavus; test: Inhibition of Ruminococcus gnavus GUS pre-incubated for 5 to 30 mins before 4-methylumbelliferone beta-D-glucuronide substrate addition up to pH 6.9
[7] = biological target: Beta-glucuronidase (Escherichia coli (strain K12)) (UniProt P05804); test: Inhibition of Escherichia coli GUS pre-incubated for 5 to 30 mins before 4-methylumbelliferone beta-D-glucuronide substrate addition at pH 6.5 to 7.9
[8] = biological target: T2, Beta-glucuronidase (Escherichia coli (strain K12), UniProt P05804); test: Inhibition of Escherichia coli GUS pre-incubated for 5 to 30 mins before 4-methylumbelliferone beta-D-glucuronide substrate addition at pH 5.5
[9] = Inhibition of Clostridium perfringens GUS pre-incubated for 5 to 30 mins before 4-methylumbelliferone beta-D-glucuronide substrate addition at pH 6.7
[10] = tested on: Bacteroides fragilis; test: Inhibition of Bacteroides fragilis GUS pre-incubated for 5 to 30 mins before 4-methylumbelliferone beta-D-glucuronide substrate addition at pH 6.5 to 7.9
[11] = biological target: Beta-glucuronidase (Escherichia coli (strain K12)) (UniProt P05804); test: Inhibition of Escherichia coli GUS pre-incubated for 5 to 30 mins before 4-methylumbelliferone beta-D-glucuronide substrate addition at pH 3.6 to 6.9
[12] = biological target: T2, Beta-glucuronidase; test: Inhibition of Escherichia coli GUS pre-incubated for 5 to 30 mins before 4-methylumbelliferone beta-D-glucuronide substrate addition at pH 6.7
[13] = Inhibition of Bacteroides fragilis GUS pre-incubated for 5 to 30 mins before 4-methylumbelliferone beta-D-glucuronide substrate addition at pH 6.7
[14] = Inhibition of Ruminococcus gnavus GUS pre-incubated for 5 to 30 mins before 4-methylumbelliferone beta-D-glucuronide substrate addition at pH […]; parameters: species or system Mediterraneibacter gnavus
[15] = Inhibition of Bacteroides fragilis GUS pre-incubated for 5 to 30 mins before 4-methylumbelliferone beta-D-glucuronide substrate addition at pH 5.5
[16] = (§1) Selectivity index, ratio of Ki for inhibition of Bacteroides fragilis GUS pre-incubated for 5 to 30 mins before 4-methylumbelliferone beta-D-glucuronide substrate addition at pH 5.5 to Ki for inhibition of Clostridium perfringens GUS pre-incubated for 5 to 30 mins before 4-methylumbelliferone beta-D-glucuronide substrate addition at pH 5.5
[17] = as §1, with “Ruminococcus gnavus” for “Bacteroides fragilis”, “Escherichia coli” for “Clostridium perfringens”

T2 sequence (P05804 whole entry): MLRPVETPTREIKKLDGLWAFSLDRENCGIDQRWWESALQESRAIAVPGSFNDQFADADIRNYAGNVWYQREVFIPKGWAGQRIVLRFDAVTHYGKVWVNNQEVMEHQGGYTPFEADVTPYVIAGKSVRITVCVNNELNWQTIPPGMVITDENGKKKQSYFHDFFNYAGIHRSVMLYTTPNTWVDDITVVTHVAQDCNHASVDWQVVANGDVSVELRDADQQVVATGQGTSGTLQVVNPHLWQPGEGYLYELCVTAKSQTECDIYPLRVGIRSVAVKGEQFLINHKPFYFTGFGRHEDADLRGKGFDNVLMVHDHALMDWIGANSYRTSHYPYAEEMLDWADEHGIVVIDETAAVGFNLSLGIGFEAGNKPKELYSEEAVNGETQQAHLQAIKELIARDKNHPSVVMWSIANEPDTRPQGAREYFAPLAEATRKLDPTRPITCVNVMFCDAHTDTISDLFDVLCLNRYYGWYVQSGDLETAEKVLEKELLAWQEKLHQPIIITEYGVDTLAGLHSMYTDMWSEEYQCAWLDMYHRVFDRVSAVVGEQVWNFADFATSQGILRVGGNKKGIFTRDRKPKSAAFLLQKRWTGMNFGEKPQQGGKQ
Chain of Beta-glucuronidase (Escherichia coli (strain K12)) (P05804 whole entry, looked up): as the sequence (P05804 whole entry) above

| Structure (SMILES) | inhibition [1] | Ki [2] [µM] | Ki [3] [µM] | Ki [4] [nM] | Ki [5] [µM] | inhibition [6] | inhibition [7] | Ki [8] [µM] | Ki [9] [nM] | inhibition [10] | inhibition [11] | Ki [12] [nM] | Ki [13] [µM] | Ki [14] [µM] | Ki [15] [nM] | Ratio Ki [16] | Ratio Ki [17] |
| --- | --- | --- | --- | --- | --- | --- | --- | --- | --- | --- | --- | --- | --- | --- | --- | --- | --- |
| O=C(O)[C@H]1CNC[C@@H](O)[C@@H]1O | Active | 0.0122 | 0.0039 | 11 | 0.048 | Active | Active | 0.034 | 16.1 | Active | Active | 12 | 0.0036 | 0.05 | – | – | – |
| O=C(O)[C@H]1NC(=O)[C@H](O)[C@@H](O)[C@@H]1O | – | – | – | 101 | 0.132 | – | – | 0.232 | – | – | – | – | – | 0.28 | 69 | – | – |
| CCCN1C[C@@H](O)[C@H](O)[C@@H](C(=O)O)C1 | – | 61.2 | 5.45 | 37300 | 187 | – | – | 59.2 | 51800 | – | – | 41300 | 15.5 | 17.6 | 38700 | 190 | 700 |
| O=C(O)[C@H]1OC(=O)[C@H](O)[C@@H](O)[C@@H]1O | – | – | – | 4510 | 4.87 | – | – | 15.8 | – | – | – | – | – | 40.8 | 690 | – | – |
| O=C(O)[C@H]1NC[C@H](O)[C@@H](O)[C@@H]1O | – | – | – | 12300 | 21.5 | – | – | 17.5 | – | – | – | – | – | 21 | 2410 | – | – |
| CCC[C@@H]1NC[C@@H](O)[C@H](O)[C@H]1C(=O)O | – | 5.87 | 51.8 | 425 | 32.2 | – | – | 0.182 | 179 | – | – | 73.7 | 3.66 | 94.6 | 7450 | – | – |
